Data published in patent publication US7074789B2, “Kinase inhibitors” (Amgen Inc., priority 1999, dated 2006).
Values joined by “and” are separate entries in the source; they are usually repeats but may differ in a detail not shown here. Equal values may be shown once. Read-outs that look alike come from different tables or passages of the source.

How the values were obtained:
Assay type in all cases: biochemical
Zap-70 = target: T1, Zap-70 (Homo sapiens, UniProt P43403); assay: Kinase inhibition assay (33P transfer), Zap-70; details: read-out: Zap-1
T1 construct: Kinases are expressed as either kinase domains or full length constructs; made in house
T1 sequence (P43403 1-619): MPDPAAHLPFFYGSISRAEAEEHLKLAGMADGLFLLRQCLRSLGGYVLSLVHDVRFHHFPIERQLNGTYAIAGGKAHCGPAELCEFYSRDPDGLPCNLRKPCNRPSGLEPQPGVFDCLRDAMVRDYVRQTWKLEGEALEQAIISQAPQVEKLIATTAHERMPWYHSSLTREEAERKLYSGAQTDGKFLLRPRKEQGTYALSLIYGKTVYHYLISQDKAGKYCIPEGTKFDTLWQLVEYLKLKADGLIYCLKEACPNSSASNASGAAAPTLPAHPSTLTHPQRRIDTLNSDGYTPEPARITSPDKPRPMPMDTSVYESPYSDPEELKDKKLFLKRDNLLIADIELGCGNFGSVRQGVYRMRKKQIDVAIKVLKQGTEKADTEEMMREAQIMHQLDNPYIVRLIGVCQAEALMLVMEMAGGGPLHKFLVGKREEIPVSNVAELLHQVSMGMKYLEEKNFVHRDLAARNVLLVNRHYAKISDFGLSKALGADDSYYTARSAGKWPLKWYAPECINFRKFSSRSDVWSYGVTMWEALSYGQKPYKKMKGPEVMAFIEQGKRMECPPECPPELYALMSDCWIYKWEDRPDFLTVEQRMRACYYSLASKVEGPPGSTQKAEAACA
Summary of the method: (§1)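 Kinase domains or full-length kinases, GST- or His-tagged and expressed in E. coli or baculovirus/High Five cells, transferred 33PO4 from ATP onto plate-bound poly(Glu,Tyr) 4:1 or poly(Arg,Ser) 3:1. After incubation, plates were washed with 0.5% phosphoric acid and counted by liquid scintillation.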

IGFR-1 [1] = target: T2, IGFR-1 (Homo sapiens, UniProt P08069); assay: Kinase inhibition assay, IGFR-1 (Table 2); details: Table 2, kinase inhibition class
T2 construct: Kinases are expressed as either kinase domains or full length constructs; made in house

Kdr = target: T3, Kdr (Homo sapiens, UniProt P35968); assay: Kinase inhibition assay (33P transfer), Kdr; details: read-out: KDR-1
T3 construct: Kinases are expressed as either kinase domains or full length constructs; made in house
Summary of the method: as §1

EGFR = target: T4, EGFR (Homo sapiens, UniProt P00533); assay: Kinase inhibition assay (33P transfer), EGFR; details: read-out: EGFR-1
T4 construct: Kinases are expressed as either kinase domains or full length constructs; made in house
Summary of the method: (§2)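 GST/His-fusion kinases, E. coli or High Five expressed, affinity purified; 33P-ATP, plate-coated poly(Glu,Tyr) 4:1 or poly(Arg,Ser) 3:1; 0.5% H3PO4 wash, scintillant, LSC.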

Src = target: T5, Src (Homo sapiens, UniProt P12931); assay: Kinase inhibition assay (33P transfer), Src; details: Table 6, Src-1 kinase inhibition class
T5 construct: Kinases are expressed as either kinase domains or full length constructs; made in house
Summary of the method: as §2

ErbB2 = target: T6, ErbB2 (Homo sapiens, UniProt P04626); assay: Kinase inhibition assay (33P transfer), ErbB2; details: read-out: ErbB2-2
T6 construct: Kinases are expressed as either kinase domains or full length constructs; made in house
Summary of the method: as §2

AKT = target: T7, AKT (Homo sapiens, UniProt Q9Y243); assay: Kinase inhibition assay (33P transfer), AKT; details: read-out: AKT3-1
T7 construct: Kinases are expressed as either kinase domains or full length constructs; made in house
Summary of the method: as §1

Itk = target: T8, Itk (Homo sapiens, UniProt Q08881); assay: Kinase inhibition assay (33P transfer), Itk; details: read-out: Itk-1
T8 construct: Kinases are expressed as either kinase domains or full length constructs; made in house
T8 sequence (Q08881 1-620): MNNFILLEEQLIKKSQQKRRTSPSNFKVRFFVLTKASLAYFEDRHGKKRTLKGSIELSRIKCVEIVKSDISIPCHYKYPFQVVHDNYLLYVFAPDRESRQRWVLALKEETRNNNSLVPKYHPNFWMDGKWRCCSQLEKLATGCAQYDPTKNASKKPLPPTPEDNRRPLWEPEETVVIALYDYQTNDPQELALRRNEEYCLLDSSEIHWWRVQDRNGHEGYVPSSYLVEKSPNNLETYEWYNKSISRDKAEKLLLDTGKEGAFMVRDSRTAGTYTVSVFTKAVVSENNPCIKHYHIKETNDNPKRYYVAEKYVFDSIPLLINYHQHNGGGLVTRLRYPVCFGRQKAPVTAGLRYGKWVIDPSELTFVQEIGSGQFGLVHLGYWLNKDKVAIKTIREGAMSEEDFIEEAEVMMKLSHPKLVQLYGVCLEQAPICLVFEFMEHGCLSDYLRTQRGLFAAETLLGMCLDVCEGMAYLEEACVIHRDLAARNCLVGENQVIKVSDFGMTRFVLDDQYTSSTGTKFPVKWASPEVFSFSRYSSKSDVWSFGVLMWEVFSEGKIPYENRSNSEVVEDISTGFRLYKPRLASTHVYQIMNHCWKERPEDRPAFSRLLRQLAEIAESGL
Summary of the method: as §2

c-Met = target: T9, c-Met (Homo sapiens, UniProt P08581); assay: Kinase inhibition assay (33P transfer), c-Met; details: read-out: Met-1
T9 construct: Kinases are expressed as either kinase domains or full length constructs; made in house
Summary of the method: as §2

Lck = target: T10, Lck (Homo sapiens, UniProt P06239); assay: Kinase inhibition assay (33P transfer), Lck; details: read-out: Lck-1
T10 construct: Kinases are expressed as either kinase domains or full length constructs; made in house
Summary of the method: as §1

Flt-1 = target: T11, Flt-1 (Homo sapiens, UniProt P17948); assay: Kinase inhibition assay (33P transfer), Flt-1
T11 construct: Kinases are expressed as either kinase domains or full length constructs; made in house
Summary of the method: as §2

ErbB4 = target: T12, ErbB4 (Homo sapiens, UniProt Q15303); assay: Kinase inhibition assay (33P transfer), ErbB4; details: read-out: ErbB4-1
T12 construct: Kinases are expressed as either kinase domains or full length constructs; made in house

FGFR1 = target: T13, FGFR1 (Homo sapiens, UniProt P11362); assay: Kinase inhibition assay (33P transfer), FGFR1; details: read-out: FGFR1-1
T13 construct: Kinases are expressed as either kinase domains or full length constructs; made in house

Fyn = target: T14, Fyn (Homo sapiens, UniProt P06241); assay: Kinase inhibition assay (33P transfer), Fyn; details: read-out: Fyn-1
T14 construct: Kinases are expressed as either kinase domains or full length constructs; made in house
Summary of the method: as §2

Ret-1 = target: T15, Ret-1 (Homo sapiens, UniProt P07949); assay: Kinase inhibition assay (33P transfer), Ret; details: Table 6, Ret-1 kinase inhibition class
T15 construct: Kinases are expressed as either kinase domains or full length constructs; made in house

Lyn = target: T16, Lyn (Homo sapiens, UniProt P07948); assay: Kinase inhibition assay (33P transfer), Lyn; details: Table 6, Lyn-1 kinase inhibition class
T16 construct: Kinases are expressed as either kinase domains or full length constructs; made in house
Summary of the method: as §2

PDGFRB = target: T17, PDGFRB (Homo sapiens, UniProt P09619); assay: Kinase inhibition assay (33P transfer), PDGFRB; details: read-out: PDGFRB-1
T17 construct: Kinases are expressed as either kinase domains or full length constructs; made in house

IGFR-1 [2] = target: T2, IGFR-1; assay: Kinase inhibition assay (33P transfer), IGFR-1; details: Table 2, class symbols A-E
[3] = Table 2, kinase inhibition class

T5 sequence (P12931 whole entry, species assumed, the tested form may be a part): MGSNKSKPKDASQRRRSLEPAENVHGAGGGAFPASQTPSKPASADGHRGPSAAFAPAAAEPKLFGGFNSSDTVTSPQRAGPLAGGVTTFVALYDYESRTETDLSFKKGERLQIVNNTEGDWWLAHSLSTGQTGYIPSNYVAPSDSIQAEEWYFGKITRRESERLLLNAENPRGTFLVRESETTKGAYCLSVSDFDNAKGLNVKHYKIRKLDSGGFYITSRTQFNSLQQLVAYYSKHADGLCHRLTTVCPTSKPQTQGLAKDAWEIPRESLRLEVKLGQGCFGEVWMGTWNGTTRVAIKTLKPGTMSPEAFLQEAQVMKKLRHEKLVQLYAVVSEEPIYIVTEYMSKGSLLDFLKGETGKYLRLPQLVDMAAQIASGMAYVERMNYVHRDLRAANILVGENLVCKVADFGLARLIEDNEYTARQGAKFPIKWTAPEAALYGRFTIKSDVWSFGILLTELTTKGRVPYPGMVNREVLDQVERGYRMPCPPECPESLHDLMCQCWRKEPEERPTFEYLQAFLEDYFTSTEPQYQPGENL
T15 sequence (P07949 29-1114): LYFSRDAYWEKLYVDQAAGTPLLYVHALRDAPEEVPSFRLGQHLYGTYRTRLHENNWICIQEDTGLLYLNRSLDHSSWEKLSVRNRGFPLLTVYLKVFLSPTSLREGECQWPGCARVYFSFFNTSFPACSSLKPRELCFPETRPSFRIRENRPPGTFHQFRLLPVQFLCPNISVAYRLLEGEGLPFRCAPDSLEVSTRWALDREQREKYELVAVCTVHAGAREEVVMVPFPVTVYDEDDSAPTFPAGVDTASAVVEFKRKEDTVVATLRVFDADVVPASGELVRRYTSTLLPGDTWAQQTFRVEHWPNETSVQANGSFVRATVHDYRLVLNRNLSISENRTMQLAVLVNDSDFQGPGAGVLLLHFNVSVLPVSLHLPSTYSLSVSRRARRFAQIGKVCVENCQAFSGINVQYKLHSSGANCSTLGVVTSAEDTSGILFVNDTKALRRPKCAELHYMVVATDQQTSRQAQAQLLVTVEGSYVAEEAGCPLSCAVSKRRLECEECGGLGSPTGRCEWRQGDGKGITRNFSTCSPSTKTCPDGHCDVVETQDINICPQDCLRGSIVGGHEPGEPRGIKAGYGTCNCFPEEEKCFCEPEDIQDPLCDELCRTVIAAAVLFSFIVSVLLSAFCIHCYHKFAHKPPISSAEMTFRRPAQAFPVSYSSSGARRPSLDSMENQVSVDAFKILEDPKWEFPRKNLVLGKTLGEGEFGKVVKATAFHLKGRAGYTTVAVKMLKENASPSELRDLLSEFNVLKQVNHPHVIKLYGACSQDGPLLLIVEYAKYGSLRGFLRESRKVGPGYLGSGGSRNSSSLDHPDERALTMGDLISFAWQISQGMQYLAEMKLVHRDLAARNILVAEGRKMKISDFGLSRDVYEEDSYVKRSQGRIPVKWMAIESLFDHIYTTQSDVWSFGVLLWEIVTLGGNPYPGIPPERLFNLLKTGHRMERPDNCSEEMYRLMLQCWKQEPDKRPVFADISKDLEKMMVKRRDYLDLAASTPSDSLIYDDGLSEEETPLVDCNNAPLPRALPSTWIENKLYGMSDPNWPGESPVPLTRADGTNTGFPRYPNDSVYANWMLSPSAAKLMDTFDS
T14 sequence (P06241 whole entry, species assumed, the tested form may be a part): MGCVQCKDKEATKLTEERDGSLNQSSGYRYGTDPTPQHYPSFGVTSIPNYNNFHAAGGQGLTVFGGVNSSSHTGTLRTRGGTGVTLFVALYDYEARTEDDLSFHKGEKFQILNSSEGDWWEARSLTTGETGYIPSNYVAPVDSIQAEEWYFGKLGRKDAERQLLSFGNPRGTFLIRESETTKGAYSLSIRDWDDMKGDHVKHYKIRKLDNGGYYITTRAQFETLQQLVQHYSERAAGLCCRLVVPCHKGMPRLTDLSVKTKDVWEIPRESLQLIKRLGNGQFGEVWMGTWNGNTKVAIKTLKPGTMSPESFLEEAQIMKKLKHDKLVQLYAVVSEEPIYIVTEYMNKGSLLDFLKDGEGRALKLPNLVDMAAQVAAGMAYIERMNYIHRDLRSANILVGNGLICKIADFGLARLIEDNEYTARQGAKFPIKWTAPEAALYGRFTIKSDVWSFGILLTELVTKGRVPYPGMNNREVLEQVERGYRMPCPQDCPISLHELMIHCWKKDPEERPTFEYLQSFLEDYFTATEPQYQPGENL
T2 sequence (P08069 31-1367): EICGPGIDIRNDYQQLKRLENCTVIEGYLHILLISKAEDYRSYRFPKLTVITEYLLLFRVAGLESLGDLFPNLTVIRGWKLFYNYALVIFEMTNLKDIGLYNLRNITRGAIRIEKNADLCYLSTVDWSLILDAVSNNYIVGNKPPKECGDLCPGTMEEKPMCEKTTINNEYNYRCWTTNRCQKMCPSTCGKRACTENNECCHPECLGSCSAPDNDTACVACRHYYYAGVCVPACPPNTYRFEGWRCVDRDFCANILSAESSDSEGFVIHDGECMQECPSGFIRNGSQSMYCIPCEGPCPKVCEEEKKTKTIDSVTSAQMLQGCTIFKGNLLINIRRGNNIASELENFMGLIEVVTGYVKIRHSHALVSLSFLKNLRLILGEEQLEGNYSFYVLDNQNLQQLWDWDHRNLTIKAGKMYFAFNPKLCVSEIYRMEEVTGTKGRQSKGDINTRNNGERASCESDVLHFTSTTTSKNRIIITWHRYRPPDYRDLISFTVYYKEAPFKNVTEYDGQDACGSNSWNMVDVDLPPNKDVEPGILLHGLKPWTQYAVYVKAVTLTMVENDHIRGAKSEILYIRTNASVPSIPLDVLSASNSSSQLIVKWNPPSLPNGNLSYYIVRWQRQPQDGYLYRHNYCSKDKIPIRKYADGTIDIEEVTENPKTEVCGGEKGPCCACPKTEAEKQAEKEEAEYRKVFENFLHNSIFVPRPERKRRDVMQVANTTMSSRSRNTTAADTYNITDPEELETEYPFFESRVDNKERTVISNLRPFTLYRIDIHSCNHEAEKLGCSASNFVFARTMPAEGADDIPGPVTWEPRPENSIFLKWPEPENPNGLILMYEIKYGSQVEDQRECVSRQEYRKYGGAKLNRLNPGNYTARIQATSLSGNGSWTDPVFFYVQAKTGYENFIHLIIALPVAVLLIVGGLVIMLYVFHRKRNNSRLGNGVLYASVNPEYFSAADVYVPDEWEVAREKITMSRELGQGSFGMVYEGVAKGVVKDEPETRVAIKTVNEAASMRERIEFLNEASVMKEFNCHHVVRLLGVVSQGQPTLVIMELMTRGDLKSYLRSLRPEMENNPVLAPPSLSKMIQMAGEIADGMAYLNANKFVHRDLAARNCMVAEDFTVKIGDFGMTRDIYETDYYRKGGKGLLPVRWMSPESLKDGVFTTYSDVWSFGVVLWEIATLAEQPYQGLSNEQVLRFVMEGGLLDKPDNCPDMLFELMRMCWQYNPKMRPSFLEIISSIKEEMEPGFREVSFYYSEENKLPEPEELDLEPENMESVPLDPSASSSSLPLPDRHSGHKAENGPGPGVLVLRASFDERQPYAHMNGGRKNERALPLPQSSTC
T16 sequence (P07948 whole entry, species assumed, the tested form may be a part): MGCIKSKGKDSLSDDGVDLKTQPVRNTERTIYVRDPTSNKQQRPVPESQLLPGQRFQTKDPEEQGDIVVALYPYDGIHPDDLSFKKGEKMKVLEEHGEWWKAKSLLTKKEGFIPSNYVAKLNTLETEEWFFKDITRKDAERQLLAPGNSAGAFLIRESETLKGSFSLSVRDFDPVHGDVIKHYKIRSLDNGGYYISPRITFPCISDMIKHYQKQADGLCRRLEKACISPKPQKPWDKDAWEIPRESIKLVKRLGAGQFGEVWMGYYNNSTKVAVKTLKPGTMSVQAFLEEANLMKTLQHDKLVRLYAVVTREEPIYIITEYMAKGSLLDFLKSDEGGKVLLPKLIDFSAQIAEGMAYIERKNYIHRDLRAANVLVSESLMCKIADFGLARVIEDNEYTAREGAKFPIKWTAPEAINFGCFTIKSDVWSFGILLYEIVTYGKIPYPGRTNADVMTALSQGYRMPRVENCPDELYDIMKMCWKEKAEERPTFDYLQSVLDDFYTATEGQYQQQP
T10 sequence (P06239 whole entry, species assumed, the tested form may be a part): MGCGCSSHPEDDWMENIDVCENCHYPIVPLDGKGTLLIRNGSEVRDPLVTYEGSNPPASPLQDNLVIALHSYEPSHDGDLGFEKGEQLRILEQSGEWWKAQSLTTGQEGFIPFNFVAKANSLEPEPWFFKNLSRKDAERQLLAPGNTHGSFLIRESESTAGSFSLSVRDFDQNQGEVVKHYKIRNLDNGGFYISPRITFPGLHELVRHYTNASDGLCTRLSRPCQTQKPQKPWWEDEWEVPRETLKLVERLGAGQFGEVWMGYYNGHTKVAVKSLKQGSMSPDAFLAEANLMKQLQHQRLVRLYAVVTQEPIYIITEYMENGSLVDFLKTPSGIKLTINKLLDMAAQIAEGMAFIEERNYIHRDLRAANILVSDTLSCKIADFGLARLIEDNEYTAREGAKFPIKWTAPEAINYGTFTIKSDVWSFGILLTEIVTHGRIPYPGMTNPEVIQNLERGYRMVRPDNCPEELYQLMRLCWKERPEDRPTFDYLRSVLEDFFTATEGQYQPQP
T7 sequence (Q9Y243 whole entry, the tested form may be a part): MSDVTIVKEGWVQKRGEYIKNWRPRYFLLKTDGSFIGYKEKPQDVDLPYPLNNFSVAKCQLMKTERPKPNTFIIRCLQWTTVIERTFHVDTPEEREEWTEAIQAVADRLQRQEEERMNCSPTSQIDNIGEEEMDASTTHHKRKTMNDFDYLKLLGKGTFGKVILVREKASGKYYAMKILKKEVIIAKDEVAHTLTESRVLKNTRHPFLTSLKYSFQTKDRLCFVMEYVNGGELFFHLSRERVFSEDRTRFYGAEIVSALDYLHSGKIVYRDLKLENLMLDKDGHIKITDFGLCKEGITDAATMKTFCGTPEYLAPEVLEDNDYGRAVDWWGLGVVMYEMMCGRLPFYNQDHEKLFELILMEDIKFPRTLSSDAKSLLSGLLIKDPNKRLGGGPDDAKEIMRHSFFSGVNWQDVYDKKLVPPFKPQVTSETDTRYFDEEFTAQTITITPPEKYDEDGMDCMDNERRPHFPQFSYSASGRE

Compound	IC50 (Zap-70) [µM]	IC50 (IGFR-1 [1])	IC50 (Kdr)	IC50 (EGFR; [3])	IC50 (Src) [µM]	IC50 (ErbB2)	IC50 (AKT; [3]) [µM]	IC50 (Itk) [µM]	IC50 (c-Met; [3])	IC50 (Lck) [µM]	IC50 (Flt-1) [µM]	IC50 (ErbB4) [µM]	IC50 (FGFR1) [µM]	IC50 (Fyn) [µM]	IC50 (Ret-1) [µM]	IC50 (Lyn) [µM]	IC50 (PDGFRB)	IC50 (Zap-70; Table 3, class symbols) [µM]	IC50 (Kdr; Table 3, class symbols) [µM]	IC50 (EGFR; Table 2, class symbols A-E) [µM]	further results
COc1cc(Nc2ncnc(-n3c(NC4CCCc5ccccc54)nc4ccccc43)n2)cc(OC)c1OC (stereo not drawn) [Compound 587]	> 8.59	6.68 to 8.59 µM and > 8.59 µM	< 0.764 µM and 0.764 to 4.58 µM	4.58 to 6.68 µM and 6.68 to 8.59 µM	> 8.59	0.764 to 4.58 µM and 4.58 to 6.68 µM	> 8.59	> 8.59	6.68 to 8.59 µM and > 8.59 µM	0.764 to 4.58	0.764 to 4.58	0.764 to 4.58	< 0.764	> 8.59	< 0.764	0.764 to 4.58	0.764 to 4.58 µM and > 8.59 µM	–	–	–	–
CCOC(=O)C(Nc1nc2ccccc2n1-c1ncnc(Nc2cc(OC)c(OC)c(OC)c2)n1)c1ccccc1 (stereo not drawn) [Compound 585]	> 8.1	> 8.1 µM	< 0.72 µM	> 8.1 µM	> 8.1	4.32 to 6.3 µM	> 8.1	> 8.1	6.3 to 8.1 µM	4.32 to 6.3	0.72 to 4.32	> 8.1	< 0.72	> 8.1	< 0.72	> 8.1	0.72 to 4.32 µM	–	–	–	–
Cc1cccc(Nc2ncnc(N3CCCc4ccc(C(F)(F)F)cc43)n2)c1 [Compound 582]	> 11.7	> 11.7 µM	6.23 to 9.08 µM	< 1.04 µM	> 11.7	1.04 to 6.23 µM	> 11.7	> 11.7	9.08 to 11.7 µM	6.23 to 9.08	> 11.7	> 11.7	1.04 to 6.23	> 11.7	6.23 to 9.08	> 11.7	> 11.7 µM	–	–	–	–
COc1cc(Nc2ncnc(-n3c(NC4c5ccccc5CC4O)nc4ccccc43)n2)cc(OC)c1OC (stereo not drawn) [Compound 579]	> 8.56	> 8.56 µM	0.761 to 4.57 µM and < 0.761 µM	–	> 8.56	4.57 to 6.66 µM and < 0.761 µM	> 8.56	> 8.56	> 8.56 µM	0.761 to 4.57	0.761 to 4.57	< 0.761	0.761 to 4.57	> 8.56	< 0.761	4.57 to 6.66	> 8.56 µM	–	–	–	–
COc1cc(C)c(Nc2ncnc(Nc3cc(-c4ccc(C)cc4)n[nH]3)n2)cc1OC [Compound 1127]	–	–	–	–	–	> 10.8 µM	–	–	–	–	–	–	–	–	–	–	> 10.8 µM	> 10.8	> 10.8	> 10.8	IC50 (AKT; Table 2, class symbols A-E): > 10.8 µM; IC50 (Itk; Table 3, class symbols): > 10.8 µM; IC50 (c-Met; Table 2, class symbols A-E): < 0.958 µM; IC50 (Lck; Table 3, class symbols): > 10.8 µM; IC50 (IGFR-1 [2]): < 0.958 µM
O=C(O)Cc1cccc(Nc2ncnc(-c3cccnc3Nc3ccccc3)n2)c1 [Compound 1094]	–	–	–	–	–	6.02 to 8.78 µM	–	–	–	–	–	–	–	–	–	–	< 1 µM	6.02 to 8.78	< 1	1 to 6.02	IC50 (AKT; Table 2, class symbols A-E): > 11.3 µM; IC50 (Itk; Table 3, class symbols): > 11.3 µM; IC50 (c-Met; Table 2, class symbols A-E): 1 to 6.02 µM; IC50 (Lck; Table 3, class symbols): > 11.3 µM; IC50 (IGFR-1 [2]): > 11.3 µM
